Row | melting point | Compound
1 | 165 to 166 °C | CCCC[C@H](CC(=O)NO)C(=O)N[C@H](C(=O)N(C)C)C(C)(C)C
2 | 200 °C | CCC[C@H](CC(=O)NO)C(=O)N[C@H](C(=O)NC)C(C)(C)C
